In article PMC8330735 (Journal of Enzyme Inhibition and Medicinal Chemistry, 2021):

Key:
ovine COX-1 = biological target: T1, ovine COX-1 (Ovis aries, UniProt P05979); experiment: In vitro COX-1 inhibitory assay (colorimetric Cayman kit)
T1 sequence (P05979 25-600): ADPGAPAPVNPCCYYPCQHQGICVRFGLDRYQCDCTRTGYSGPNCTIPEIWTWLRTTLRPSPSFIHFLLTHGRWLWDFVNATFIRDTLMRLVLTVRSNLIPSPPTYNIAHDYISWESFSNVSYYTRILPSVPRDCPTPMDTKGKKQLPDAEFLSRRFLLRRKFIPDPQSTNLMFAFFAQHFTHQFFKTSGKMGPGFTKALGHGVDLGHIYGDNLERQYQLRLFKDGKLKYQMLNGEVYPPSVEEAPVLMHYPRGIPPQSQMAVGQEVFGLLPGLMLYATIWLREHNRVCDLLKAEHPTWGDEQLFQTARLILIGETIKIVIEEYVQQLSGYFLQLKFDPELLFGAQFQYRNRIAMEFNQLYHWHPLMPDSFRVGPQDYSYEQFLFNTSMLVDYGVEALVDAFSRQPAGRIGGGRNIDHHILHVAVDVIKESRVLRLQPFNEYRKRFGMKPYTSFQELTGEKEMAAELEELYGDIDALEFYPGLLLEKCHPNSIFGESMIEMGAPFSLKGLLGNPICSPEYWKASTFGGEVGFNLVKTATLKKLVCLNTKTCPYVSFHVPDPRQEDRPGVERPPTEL
Protocol: (§1) All the newly synthesised compounds were tested for their ability to inhibit COX-1 and COX-2 enzymes using a screening assay method.

human recombinant COX-2 = biological target: T2, human recombinant COX-2 (Homo sapiens, UniProt P35354); experiment: In vitro COX-2 inhibitory assay (colorimetric Cayman kit); details: for Selectivity Index (SI): COX-1 IC50/COX-2 IC50
T2 sequence (P35354 18-604): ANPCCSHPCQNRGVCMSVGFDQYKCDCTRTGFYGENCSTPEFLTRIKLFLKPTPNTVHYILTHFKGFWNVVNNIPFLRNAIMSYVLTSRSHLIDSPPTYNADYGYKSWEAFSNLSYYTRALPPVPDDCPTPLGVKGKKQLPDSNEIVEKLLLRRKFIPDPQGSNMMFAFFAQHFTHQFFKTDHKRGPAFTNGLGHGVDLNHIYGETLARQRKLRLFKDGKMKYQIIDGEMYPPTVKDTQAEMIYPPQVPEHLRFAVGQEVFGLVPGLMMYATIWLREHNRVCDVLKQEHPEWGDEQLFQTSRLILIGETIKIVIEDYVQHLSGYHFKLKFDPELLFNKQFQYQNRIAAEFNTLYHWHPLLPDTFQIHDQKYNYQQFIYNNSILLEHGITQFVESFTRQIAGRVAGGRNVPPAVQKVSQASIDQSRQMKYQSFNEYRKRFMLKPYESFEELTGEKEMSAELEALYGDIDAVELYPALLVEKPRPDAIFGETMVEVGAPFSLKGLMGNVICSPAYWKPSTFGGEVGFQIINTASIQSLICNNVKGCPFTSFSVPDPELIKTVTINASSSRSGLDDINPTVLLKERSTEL
Protocol: as §1

[1] = system: stomach ulceration in rats; details: rat, in vivo, 2 days
Protocol: The rats from the previous experiment were fasted for 12 h., followed by the administration of additional doses of the selected compounds or the two references for two consecutive days. Six hrs after the last treatment, the animals were sacrificed, and their stomachs were removed, washed with saline solution (0.9%) and examined for ulceration using a magnifying lens. The ulcer scores were estimated according to the method prescribed by Kulkarni and as detailed in our previous studies[36–38]. The following scores were individually assigned to each lesion: normal coloured stomach, 0; red colouration, 0.5; spot ulcers, 1; haemorrhagic streaks, 1.5; ulcer >3 but <5 mm, 2; and ulcers >5 mm, 3.

[2] = system: ROS production in LPS-activated RAW 264.7 macrophages; experiment: ROS production in LPS-activated RAW 264.7 macrophages (DCFH-DA); type: cell-based; details: Mus musculus, RAW264.7; LPS 1 µg/mL activated RAW 264.7
Protocol: HCA7 colorectal cancer cell line was obtained from Sigma. […] Louis, MO) containing 10% heat-inactivated foetal bovine serum (HI-FBS) (Gibco, USA), 100 μg/mL streptomycin (Invitrogen, USA), and […] penicillin (Invitrogen, USA)[40]. HCA7 and RAW 264.7 cells were cultured in Dulbecco's minimal essential media (DMEM, Invitrogen) containing 10% HI-FBS, sodium pyruvate (1 mM), penicillin ([…]), and streptomycin (100 mg/m)[41]^,[42]. […] The cells were cultured, incubated with the different test compounds, and activated with LPS (1 µg/mL) as detailed above. […] IC50 values were calculated from the dose–response curves.

[3] = system: NO production in LPS-activated RAW 264.7 macrophages; experiment: NO production in LPS-activated RAW 264.7 macrophages (DAF-FM); type: cell-based; details: Mus musculus, RAW264.7; LPS 1 µg/mL activated RAW 264.7
Protocol: HCA7 colorectal cancer cell line was obtained from Sigma. […] Louis, MO) containing 10% heat-inactivated foetal bovine serum (HI-FBS) (Gibco, USA), 100 μg/mL streptomycin (Invitrogen, USA), and […] penicillin (Invitrogen, USA)[40]. HCA7 and RAW 264.7 cells were cultured in Dulbecco's minimal essential media (DMEM, Invitrogen) containing 10% HI-FBS, sodium pyruvate (1 mM), penicillin ([…]), and streptomycin (100 mg/m)[41]^,[42]. […] Molecular Probes, USA). Briefly, RAW 264.7 cells were cultured in black 96-well plates (200,000 cells/mL, 100 µl/well) for 24 h. […] The fluorescence intensity, which is directly proportional to NO levels, was quantified, as detailed in our previous study. IC50 values were calculated from the dose–response curves.

[4] = system: carrageenan-induced rat paw oedema; experiment: Carrageenan-induced rat paw oedema test; type: in vivo; details: compounds and celecoxib 50 mg/kg, ibuprofen and indomethacin 20 mg/kg; for Mean oedema thickness 1h: 1 h after carrageenan; for Mean oedema thickness 1h / Mean oedema thickness 2h / Mean oedema thickness 3h / Mean oedema thickness 4h / Mean oedema thickness 5h / Mean oedema thickness 24h / Mean oedema thickness 0h: mean ± SEM, n = 5; for Mean oedema thickness 2h: 2 h after carrageenan; for Mean oedema thickness 3h: 3 h after carrageenan; for Mean oedema thickness 4h: 4 h after carrageenan; for Mean oedema thickness 5h: 5 h after carrageenan; for Mean oedema thickness 24h: 24 h after carrageenan; for Mean oedema thickness 0h: before carrageenan (0 h); for Average oedema inhibition%: from area under the curve of all time points
Protocol: The rats were divided into nine groups (n = 5/group). All tested compounds were suspended in 1% Tween-80. Group 1, controls, were given the vehicle (1% Tween80, 10 ml/kg). […] The rats were given the drugs 1 h before the injection of carrageenan solution (1% in 0.9% NaCl, 0.1 ml) (Sigma Aldrich, USA) in the sub-planter tissue of the right hind paw. The paw thickness (mm) was measured using a calliper before (0 h) and after carrageenan injection at 1, 2, 3, 4, 5 and 24 h. The inhibition of oedema thickness was calculated using the following formula (control– drug/control) × 100.

IC50 (ovine COX-1) | melting point | IC50 (human recombinant COX-2) | Selectivity Index (SI) (human recombinant COX-2) | SMILES | further results
10.9 ± 0.2 µM | 194 to 198 °C | 0.03 µM | 362.00 | O=C(CSc1nc2ccccc2c(=O)n1NC(=O)c1ccccc1)NNC(=O)c1ccccc1 [14a, N-(2-((2-(2-benzoylhydrazinyl)-2-oxoethyl)thio)-4-oxoquinazolin-3(4H)-yl)benzamide] | 
12.98 ± 0.12 µM | 215 to 220 °C | 0.04 µM | 324.5 | O=C(CSc1nc2ccccc2c(=O)n1NC(=O)c1ccccc1)NNC(=O)c1ccc(Cl)cc1 [14b, N-(2-((2-(2-(4-chlorobenzoyl)hydrazinyl)-2-oxoethyl)thio)-4 oxoquinazolin-3(4H)-yl)benzamide] | 
12.56 ± 0.11 µM | 221 to 226 °C | 0.04 µM | 314.00 | O=C(CSc1nc2ccccc2c(=O)n1NC(=O)Cc1ccccc1)NNC(=O)c1ccc(Cl)cc1 [14d, N-(2-((2-(2-(4-chlorobenzoyl)hydrazinyl)-2-oxoethyl)thio)-4-oxoquinazolin-3(4H)-yl)-2-phenylacetamide] | 

Continued, compound first:

SMILES | IC50 (ovine COX-1) | melting point | IC50 (human recombinant COX-2) | Selectivity Index (SI) (human recombinant COX-2) | further results
COc1ccc(C2N(NC(=O)Cc3c[nH]c4ccccc34)C(=O)c3ccccc3N2C)cc1 (centres unmarked) [4c, 2-(1 h-indol-3-yl)-N-(2-(4-methoxyphenyl)-1-methyl-4-oxo-1,4-dihydroquinazolin-3(2H)-yl)acetamide] | 11.2 ± 0.13 µM | 83 to 85 °C | 0.03 µM | 373.67 | 
CC(C)Cc1ccc(C(C)C(=O)NN2C(=O)c3ccccc3N(C)C2c2ccccc2)cc1 (centres unmarked) [7a, 2-(4-Isobutylphenyl)-N-(1-methyl-4-oxo-2-phenyl-1,4-dihydroquinazolin-3(2H)-yl) propenamide] | 12.76 ± 0.1 µM | 85 to 89 °C | 0.05 ± 0.13 µM | 255.02 | 
CC(C)Cc1ccc(C(C)C(=O)NN2C(=O)c3ccccc3N(C)C2c2ccc(Cl)cc2)cc1 (centres unmarked) [7b, N-(2-(4-chlorophenyl)-1-methyl-4-oxo-1,4-dihydroquinazolin-3(2H)-yl)-2–(4-isobutylphenyl) propenamide] | 13.35 ± 0.1 µM | 120 to 125 °C | 0.04 µM | 333.75 | 
COc1ccc(C2N(NC(=O)C(C)c3ccc(CC(C)C)cc3)C(=O)c3ccccc3N2C)cc1 (centres unmarked) [7d, 2-(4-Isobutylphenyl)-N-(2-(4-methoxyphenyl)-1-methyl-4-oxo-1,4-dihydroquinazolin-3(2H)-yl) propenamide] | 14.4 ± 0.16 µM | 92 to 95 °C | 0.04 µM | 359.25 | 
CC(C)Cc1ccc(C(C)C(=O)NN2C(=O)c3ccccc3N(C)C2c2ccc(F)cc2)cc1 (centres unmarked) [7e] | 11.8 ± 0.15 µM | 90 to 95 °C | 0.04 µM | 296.25 | 
NNC(=O)CSc1nc2ccccc2c(=O)n1NC(=O)c1ccccc1 [13a, N-(2-((2-hydrazinyl-2-oxoethyl)thio)-4-oxoquinazolin-3(4H)-yl)benzamide] | 10.2 ± 0.14 µM | 208 to 213 °C | 0.04 µM | 254.75 | 
CC(C)Cc1ccc(C(C)C(=O)O)cc1 (centres unmarked) [Ibuprofen, reference compound] |  |  |  |  | Average Ulcer number [1]: 3.8; Lesion Incidence (%) [1]: 100%; Number of rats with ulcer [1]: 5; IC50 [2]: 36.4 ± 1.45 µM; IC50 [3]: 18.8 ± 1.19 µM; Mean oedema thickness 1h [4]: 1.76 ± 0.07 mm; Mean oedema thickness 2h [4]: 2.00 ± 0.15 mm; Mean oedema thickness 3h [4]: 1.74 ± 0.08 mm; Mean oedema thickness 4h [4]: 1.23 ± 0.16 mm; Mean oedema thickness 5h [4]: 1.36 ± 0.18 mm; Mean oedema thickness 24h [4]: 0.48 ± 0.15 mm; Mean oedema thickness 0h [4]: 0.00 ± 0.00 mm; Average oedema inhibition% [4]: 47.18%
COc1ccc2c(c1)c(CC(=O)O)c(C)n2C(=O)c1ccc(Cl)cc1 [Indomethacin, reference compound] |  |  |  |  | Average Ulcer number [1]: 12.4; Lesion Incidence (%) [1]: 100%; Number of rats with ulcer [1]: 5; IC50 [2]: 68.9 ± 1.29 µM; IC50 [3]: 25.3 ± 1.01 µM; Mean oedema thickness 1h [4]: 2.00 ± 0.14 mm; Mean oedema thickness 2h [4]: 2.21 ± 0.12 mm; Mean oedema thickness 3h [4]: 1.82 ± 0.13 mm; Mean oedema thickness 4h [4]: 2.02 ± 0.16 mm; Mean oedema thickness 5h [4]: 1.87 ± 0.18 mm; Mean oedema thickness 24h [4]: 0.49 ± 0.10 mm; Mean oedema thickness 0h [4]: 0.00 ± 0.00 mm; Average oedema inhibition% [4]: 33.81%
